Results reported in patent publication US8846739B2, “TGR5 agonists” (Exelixis Patent Company LLC, priority 2009, dated 2014).

Legend:
h-TGR5 = molecular target: T1, h-TGR5 (Homo sapiens, UniProt Q8TDU6); experiment: TGR5 cAMP Assay using Cisbio cAMP Dynamic 2 htrf assay kit; assay type: cell-based; conditions: hTGR5CRE-luc HEK 293 cells
T1 sequence (Q8TDU6 1-330): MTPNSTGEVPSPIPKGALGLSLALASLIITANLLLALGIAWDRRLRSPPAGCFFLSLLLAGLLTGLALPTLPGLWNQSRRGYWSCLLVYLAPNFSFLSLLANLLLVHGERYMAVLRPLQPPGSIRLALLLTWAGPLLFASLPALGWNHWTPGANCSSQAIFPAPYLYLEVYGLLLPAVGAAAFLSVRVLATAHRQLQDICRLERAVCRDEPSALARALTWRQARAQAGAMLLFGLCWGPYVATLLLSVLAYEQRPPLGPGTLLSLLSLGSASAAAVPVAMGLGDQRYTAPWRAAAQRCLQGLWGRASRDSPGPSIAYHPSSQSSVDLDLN
Description: Compounds were diluted in DPBS with 5% DMSO (8-point serial dilution by half logs) in a 96-well plate and 1 μL was transferred to a 384-well assay plate in quadruplicate. The d2-cAMP and anti-cAMP Ab-cryptate stock solution were prepared as per the instructions in the Cisbio™ (Bedford, Mass.) kit. Cells (hTGR5CRE-luc HEK 293 and mTGR5CRE-luc HEK 293) were harvested using cell dissociation buffer and resuspended in DPBS. Cells were adjusted to 0.44×10^6 cells/ml followed by addition of IBMX to a final concentration of 0.5 mM. The cells were then mixed with d2-cAMP solution (7.1 mL cells+100 ul d2-cAMP) and 4000 cells (9 μL) were transferred to each well of the 384-well assay plate. Cells without d2-cAMP were added to eight wells as a negative control. The plate was covered and incubated at room temp for 30 min. Then 10 μL of Ab-cryptate solution was added to each well of the assay plate and incubated for 1 hr. The plate was read on an EnVision™ plate reader (Perkin-Elmer, Waltham, Mass.) and the DeltaF value was calculated as per the instructions in the Cisbio™ kit.
(§1) In the following tables, ECso values determined according to the TGR5 cAMP Assay are noted (cAMP); EC50 values determined according to the TGR5/CRE-Luciferiase Assay are noted (CRE-Luc).

human TGR5 (h-TGR5) = molecular target: T2, human TGR5 (h-TGR5) (Homo sapiens, UniProt Q8TDU6); experiment: TGR5/CRE-Luciferase Assay; assay type: cell-based; conditions: HEK 293 hTGR5/CRE-Luc cells, 6 hours incubation, read-out: CRE-Luc Agonist (EC50)
T2 sequence (Q8TDU6 1-330): T1 sequence (Q8TDU6 1-330)
Description: HEK 293 cells stably expressing human TGR5 (h-TGR5) or mouse TGR5 (m-TGR5) were generated from HEK 293 CRE-Luciferase cells. The day before the assay, HEK 293 hTGR5/CRE-Luc cells were plated in DMEM in a 384 well assay plate at a density of 25 k cells/45 μL per well and grown for 18-20 hours. Compounds were serially diluted in DMEM containing 5% DMSO and 5 µL of compound or media alone was transferred to each well and plates were incubated for 6 hours. Following incubation, 30 μL of lysis/luciferase buffer was added to each well. The luciferase activity was then measured on the EnVision™ plate reader and the dose response data was analyzed using ActivityBase.
as §1

Row | Structure (SMILES) | EC50 (h-TGR5) [nM] | EC50 (human TGR5 (h-TGR5)) [nM]
1 | COc1cc(C(C)(C)c2cnc(SCc3c(F)cc(S(=O)(=O)N(CCO)CCC[N+](C)(C)C)cc3F)n2-c2ccc(F)cc2)ccc1Cl [Compound 12f, 3-(4-((5-(2-(4-Chloro-3-methoxyphenyl)propan-2-yl)-1-(4-fluorophenyl)-1H-imidazol-2-ylthio)methyl)-3,5-difluoro-N-(2-hydroxyethyl)phenylsulfonamido)-N,N,N-trimethylpropan-1-aminium 2,2,2-trifluoroacetate] | < 100 | < 100
2 | COc1cc(C(C)(C)c2cnc(SCc3c(F)cc(S(=O)(=O)N(CCCO)CCC[N+](C)(C)C)cc3F)n2-c2ccc(F)cc2)ccc1Cl [Compound 12g, 3-(4-((5-(2-(4-chloro-3-methoxyphenyl)propan-2-yl)-1-(4-fluorophenyl)-1H-imidazol-2-ylthio)methyl)-3,5-difluoro-N-(3-hydroxypropyl)phenylsulfonamido)-N,N,N-trimethylpropan-1-aminium 2,2,2-trifluoroacetate] | < 100 | < 100
3 | COc1cc(C(C)(C)c2cnc(SCc3c(F)cc(S(=O)(=O)N(CCC[N+](C)(C)C)CC(N)=O)cc3F)n2-c2ccc(F)cc2)ccc1Cl [Compound 12h, 3-(N-(2-amino-2-oxoethyl)-4-((5-(2-(4-chloro-3-methoxyphenyl)propan-2-yl)-1-(4-fluorophenyl)-1H-imidazol-2-ylthio)methyl)-3,5-difluorophenylsulfonamido)-N,N,N-trimethylpropan-1-aminium 2,2,2-trifluoroacetate] | < 100 | < 100
4 | CC(C)(c1ccc(Cl)c(O)c1)c1cnc(SCc2c(F)cc(S(=O)(=O)NCCC[N+](C)(C)C)cc2F)n1-c1ccc(F)cc1 [Compound 13a, 3-(4-((5-(2-(4-chloro-3-hydroxyphenyl)propan-2-yl)-1-(4-fluorophenyl)-1H-imidazol-2-ylthio)methyl)-3,5-difluorophenylsulfonamido)-N,N,N-trimethylpropan-1-aminium 2,2,2-trifluoroacetate] | 100 to 1000 | 100 to 1000
5 | COC(=O)[C@@H](C)N(CCC[N+](C)(C)C)S(=O)(=O)c1cc(F)c(CSc2ncc(C(C)(C)c3ccc(Cl)c(OC)c3)n2-c2ccc(F)cc2)c(F)c1 [Compound 14, (R)-3-(4-((5-(2-(4-chloro-3-methoxyphenyl)propan-2-yl)-1-(4-fluorophenyl)-1H-imidazol-2-ylthio)methyl)-3,5-difluoro-N-(1-methoxy-1-oxopropan-2-yl)phenylsulfonamido)-N,N,N-trimethylpropan-1-aminium 2,2,2-trifluoroacetate] | < 100 | < 100
6 | COc1cc(C(C)(C)c2cnc(SCc3c(F)cc(S(=O)(=O)N(CCC[N+](C)(C)C)[C@H](C)C(=O)O)cc3F)n2-c2ccc(F)cc2)ccc1Cl [Compound 14a, (R)-3-(N-(1-carboxyethyl)-4-((5-(2-(4-chloro-3-methoxyphenyl)propan-2-yl)-1-(4-fluorophenyl)-1H-imidazol-2-ylthio)methyl)-3,5-difluorophenylsulfonamido)-N,N,N-trimethylpropan-1-aminium 2,2,2-trifluoroacetate] | < 100 | < 100
7 | COc1cc(C(C)(C)c2cnc(SCc3c(F)cc(S(=O)(=O)N(CCCC[N+](C)(C)C)[C@H](C)C(=O)O)cc3Cl)n2-c2ccc(F)cc2)ccc1Cl [Compound 14aa, 4-([(1R)-1-carboxyethyl]{[3-chloro-4-({[5-{1-[4-chloro-3-(methyloxy)phenyl]-1-methylethyl}-1-(4-fluorophenyl)-1H-imidazol-2-yl]thio}methyl)-5-fluorophenyl]sulfonyl}amino)-N,N,N-trimethylbutan-1-aminium] | < 100 | < 100
8 | CC[C@H](C(=O)O)N(CCC[N+](C)(C)C)S(=O)(=O)c1cc(F)c(CSc2ncc(C(C)(C)c3ccc(Cl)c(OC)c3)n2-c2ccc(F)cc2)c(Cl)c1 [Compound 14ab, 3-([(1R)-1-carboxypropyl]{[3-chloro-4-({[5-{1-[4-chloro-3-(methyloxy)phenyl]-1-methylethyl}-1-(4-fluorophenyl)-1H-imidazol-2-yl]thio}methyl)-5-fluorophenyl]sulfonyl}amino)-N,N,N-trimethylpropan-1-aminium] | < 100 | < 100
9 | COc1cc(C(C)(C)c2cnc(SCc3c(F)cc(S(=O)(=O)N(CCC[N+](C)(C)C)[C@H](C(=O)O)[C@@H](C)O)cc3Cl)n2-c2ccc(F)cc2)ccc1Cl [Compound 14ac, 3-([(1S,2R)-1-carboxy-2-hydroxypropyl]{[3-chloro-4-({[5-{1-[4-chloro-3-(methyloxy)phenyl]-1-methylethyl}-1-(4-fluorophenyl)-1H-imidazol-2-yl]thio}methyl)-5-fluorophenyl]sulfonyl}amino)-N,N,N-trimethylpropan-1-aminium] | < 100 | < 100
10 | COc1cc(C(C)(C)c2cnc(SCc3c(F)cc(S(=O)(=O)N(CCCCC[N+](C)(C)C)[C@H](C)C(=O)O)cc3Cl)n2-c2ccc(F)cc2)ccc1Cl [Compound 14ad, 5-([(1R)-1-carboxyethyl]{[3-chloro-4-({[5-{1-[4-chloro-3-(methyloxy)phenyl]-1-methylethyl}-1-(4-fluorophenyl)-1H-imidazol-2-yl]thio}methyl)-5-fluorophenyl]sulfonyl}amino)-N,N,N-trimethylpentan-1-aminium] | < 100 | < 100
11 | COc1ccc(CN(CCC[N+](C)(C)C)S(=O)(=O)c2cc(F)c(CSc3ncc(C(C)(C)c4ccc(Cl)c(OC)c4)n3-c3ccc(F)cc3)c(F)c2)cc1 [Compound 14ae, 3-({[4-({[5-{1-[4-chloro-3-(methyloxy)phenyl]-1-methylethyl}-1-(4-fluorophenyl)-1H-imidazol-2-yl]thio}methyl)-3,5-difluorophenyl]sulfonyl}{[4-(methyloxy)phenyl]methyl}amino)-N,N,N-trimethylpropan-1-aminium] | 100 to 1000 | < 100
12 | COC(=O)C(C)(C)N(CCC[N+](C)(C)C)S(=O)(=O)c1cc(F)c(CSc2ncc(C(C)(C)c3ccc(Cl)c(OC)c3)n2-c2ccc(F)cc2)c(F)c1 [Compound 14af, 3-({[4-({[5-{1-[4-chloro-3-(methyloxy)phenyl]-1-methylethyl}-1-(4-fluorophenyl)-1H-imidazol-2-yl]thio}methyl)-3,5-difluorophenyl]sulfonyl}[1,1-dlmethyl-2-(methyloxy)-2-oxoethyl]amino)-N,N,N-trimethylpropan-1-aminium] | < 100 | < 100
13 | COc1cc(C(C)(C)c2cnc(SCc3c(F)cc(S(=O)(=O)N(CCC[N+](C)(C)C)[C@@H](CCC(=O)O)C(=O)O)cc3F)n2-c2ccc(F)cc2)ccc1Cl [Compound 14ag, (S)-3-(4-((5-(2-(4-chloro-3-methoxyphenyl)propan-2-yl)-1-(4-fluorophenyl)-1H-imidazol-2-ylthio)methyl)-N-(1,3-dicarboxypropyl)-3,5-difluorophenylsulfonamido)-N,N,N-trimethylpropan-1-aminium] | 100 to 1000 | < 100
14 | COc1cc(C(C)(C)c2cnc(SCc3c(F)cc(S(=O)(=O)N(CCCC[N+](C)(C)C)C(C)(C)C(=O)O)cc3F)n2-c2ccc(F)cc2)ccc1Cl [Compound 14ai, 4-(N-(2-carboxypropan-2-yl)-4-((5-(2-(4-chloro-3-methoxyphenyl)propan-2-yl)-1-(4-fluorophenyl)-1H-imidazol-2-ylthio)methyl)-3,5-difluorophenylsulfonamido)-N,N,N-trimethylbutan-1-aminium 2,2,2-trifluoroacetate] | < 100 | < 100
15 | COc1cc(C(C)(C)c2cnc(SCc3c(F)cc(S(=O)(=O)N(CCC[N+](C)(C)C)[C@H](C)CC(=O)O)cc3Cl)n2-c2ccc(F)cc2)ccc1Cl [Compound 14aj, (R)-3-(N-(1-carboxypropan-2-yl)-3-chloro-4-((5-(2-(4-chloro-3-methoxyphenyl)-propan-2-yl)-1-(4-fluorophenyl)-1H-imidazol-2-ythio)methyl)-5-fluorophenyl-sulfonamido)-N,N,N-trimethylpropan-1-aminium 2,2,2-trifluoroacetate] | < 100 | < 100
